Test results published in patent US20160185735A1, “FATTY ACID ANALOGS AND THEIR USE” (UNIVERSITY OF PITTSBURGH - OF THE COMMONWEALTH SYSTEM OF …, priority 2013, published 2016).
Values joined by “and” are separate entries in the source; they are usually repeats but may differ in a detail not shown here. Equal values may be shown once. Each block holds one compound with its values, some of them ahead of it.

What was measured:
[1] = test system: Ehrlich ascites tumor cells; settings: injected directly into the peritoneal fluid; cited from earlier work
PCa cells = settings: cited from earlier work
PC3 xenografts = test: Small animal PET/CT imaging of tracer uptake in PC3 xenografts; assay type: in vivo, mice; settings: 2 hours postinjection, listed as 18F-clicked-FTO
Experimental: Small animal PET/CT imaging was performed as previously described (Sprague et al., Clin. Cancer. Res. 2004, 10 (24), 8674-8682). Briefly, the ^18F-clicked palmitate or ^18F-clicked oleate analog (3.7 MBq) was injected via tail vein and the mouse was imaged at 2 hours postinjection. Static imaging was performed on an Inveon PET/CT scanner (Constantinescu et al., Phys. Med. Biol., 54, 2885-2899, 2009; Kemp et al., Phys. Med. Biol., 54, 2359-2376, 2009) with 10 min PET scanning followed by a 5 min CT. Inveon Research Workplace (IRW) from Siemens Healthcare Global was used for co-registration of PET/CT images and quantification of regions of interest (ROI). PET/CT images were reconstructed with maximum a posteriori (MAP), 3D ordered-subset expectation maximization (OSEM3D), 2D ordered-subset expectation maximization (OSEM2D), and filtered back projection (2DFBP). Standard uptake values (SUV) were generated by measuring ROI from PET/CT images and calculated with the formula: SUV=[nCi/ml]×[animal weight (g)]/injected dose [nCi]. FDG was injected intraperitoneally 36 hours pre-injection. 2-DG was injected intraperitoneally 4 hours pre-injection. […]

[2] = test system: β-oxidation in heart tissue; test: Folch-type extraction of 18F signal in heart tissue (oxidized vs unoxidized analog); assay type: in vivo, mice (ICR strain)
Description: FIGS. 9-10 are graphs showing the distribution of ^18F signal in heart tissue taken from fasted mice (ICR strain) administered the ^18F-labeled oleate analog (compound Va). Folch-type extraction was used to separate “Organic” (unoxidized analog) from “Pellets” and “Aqueous” (oxidized fatty acid metabolites).

[3] = Tissue biodistribution of 18F-labeled tracers postinjection; assay type: in vivo, mice (ICR strain); settings: for background muscle uptake: 0.5 and 2 hours postinjection
Experimental: FIGS. 11 and 12 are graphs showing biodistribution of ^18F-labeled FTO (“FTO,” left bar, Compound I) and the ^18F-labeled oleate analog (“clicked FTO,” right bar, compound Va) at 0.5 hours (FIG. 11) and 2 hours (FIG. 12) postinjection into mice (ICR strain). Similar to ^18F-FTO, the ^18F-labeled oleate analog has low background muscle uptake at 0.5 and 2 hours postinjection.
FIG. 14 is a table showing tissue biodistribution of ^18F-labeled-Oleate analog (compound Va) in mice (ICR strain).

[4] = test system: β-oxidation (myocardial uptake); test: Blockage of β-oxidation / myocardial uptake with etomoxir; assay type: in vivo, mice
Description: FIG. 13 is a graph showing the blockage of β-oxidation of ^18F-labeled FTO (“FTO,” left bar, Compound I) and the ^18F-labeled oleate analog (“clicked FTO,” right bar, compound Va) with etomoxir.

PC3 cells = test: Post-fix click fluorescence microscopy of alkyne fatty acid uptake; assay type: cell-based; settings: fixed, permeated, stained with sulfo-Cy3-azide
Experimental: Cells were treated with Alkyn-4-Thia-Palmitate, Alkyn-Palmitate, or control. The cells were then fixed, and incubated with sulfo-Cy3 azide to detect the trapped fatty acid analog.
This example illustrates in vitro analysis of fatty acid metabolism using the disclosed compounds. Cells were incubated with a fatty acid analog including a terminal alkyne group, fixed, and then treated with sulfo-Cy3-azide. The sulfo-Cy3-azide undergoes a click chemistry reaction (a 1,3-dipolar cycloaddition) with the terminal […] of the fatty acid homolog in the fixed cells to form a triazole ring linked to the fatty acid analog. The Cy3 moiety is then detected by fluorescence microscopy.
• 1. Place approximately 500 PC3 cells on coverslip in 24 well plates. • 2. Starve the cell with 250 μL of glucose free media overnight. • 3. Replace the media before the experiment with fresh 250 μL of glucose free media. • 4. Add alkyne fatty acid to the selected wells with coverslip and 1% BSA 10 μL in the control well and incubate at 37° C. for 1 or 2 h. • 5. After respective time wash the cells with 500 μL of 1% BSA for 3×5 min to remove extra fatty acid. • 6. Fix the cells with 300 μL of 4% paraformaldehyde (PFA) for 15 min • 7. Wash the cells once with PBS. • 8. […] Mount the coverslip and analyze by fluorescence microscopy. […]

Compound: ^14C-palmitate
incorporation into Ehrlich ascites tumor cells / cellular lipids [1]: 40-50%

Compound: [3H]C(CCCCCC)C([3H])CCCCCCCC(=O)O (centres unmarked) [^3H-palmitic acid]
uptake in PCa cells compared with 2-DG (PCa cells): dominant uptake

uptake in the tumor (SUV) (PC3 xenografts; 2-DG and FDG treated mice, 3.7 MBq via tail vein): 0.21 and 0.22
uptake in the tumor (SUV) (PC3 xenografts; control group not treated with 2-DG and FDG): 0.15 and 0.18
background muscle uptake [3]: low
in vivo defluorination relative to 18F-FTO ([3]; 0.5 hours postinjection): significantly less
in vivo defluorination relative to FTO ([3]; 2 hours postinjection): significantly inhibited
myocardial uptake relative to 18F-FTO ([3]; mice, postinjection): lower than the ^18F-FTO
myocardial uptake, blockage with etomoxir [4]: can be blocked with etomoxir
Compound: O=C(O)CCSCCCC/C=C\CCCCCCCc1cn(CC[18F])nn1 [compound Va, (Z)-3-((13-(1-(2-[^18F]fluoroethyl)-1H-1,2,3-triazol-4-yl)tridec-5-en-1-yl)thio)propanoic acid]
oxidation of the analog in heart tissue over time ([2]; fasted mice, Organic (unoxidized) vs Pellets and Aqueous (oxidized metabolites)): more of the fatty acid analog was oxidized

Compound: CCOC(=O)[C@@]1(CCCCCCOc2ccc(Cl)cc2)CO1 [Etomoxir, reference compound]
effect on extent of β-oxidation of the 18F-labeled oleate analog in heart tissue ([2]; fasted mice given compound Va): reduced the extent of the β-oxidation

Compound: O=C[C@H](O)[C@@H](O)[C@H](O)[C@H](O)CO [^14C-glucose]
incorporation into Ehrlich ascites tumor cells / cellular lipids [1]: 1%

Compound: alkyn-4-thia-palmitate
uptake by PCa cells (PC3 cells): avidly take up

background muscle uptake [3]: low
Compound: O=C(O)CCSCCCC/C=C\CCCCCCCC[18F] [FTO, [^18F]Fluoro-4-thia-oleic acid, reference compound]
